14 compounds from patent publication US3991202A, “Imidazolium salts” (Janssen Pharmaceutica N.V., priority 1974, dated 1976) can be followed below.

Common to all, as to type: cell-based
One experiment deals with Cryptococcus neoformans. Kind of experiment: Antifungal growth inhibition in Sabouraud's liquid medium. The conditions noted are these: Cryptococcus neoformans, 336 h; Cr.n.; tested at 100, 10, 1 μg/ml; read-out: Concentrations in μg/ml for 100% Inhibition of Growth. As for the experimental part: (§1) Tests for the control of fungal organisms were performed using Sabouraud's liquid medium (1 g. of neopeptone Difco and 2 g. of glucose Difco per 100 ml. distilled water) in test tubes, each containing 4.5 ml. of liquid medium, autoclaved at 120° C for 15 minutes. The imidazolium salts were prepared for testing by dissolving in 50% ethanol to a concentration of 20 mg./ml. and thereafter diluting with sterile distilled water to obtain a concentration of 10 mg./ml. Successive decimal dilutions were then made with sterile distilled water to prepare a series of test solutions. In carrying out the test, 0.5 ml. of one of the test solutions is added to 4.5 ml. of Sabouraud's liquid medium to obtain a test medium. In this manner, from appropriate test solution, test media containing 100 μg, 10 μg and 1 μg of imidazolium salt per milliliter of medium were obtained.
(§2) Control tubes were prepared by adding 0.5 ml. of sterile distilled water to 4.5 ml. of medium. Ethanol was also added to simulate the amount which would be present in the test media. Filamentous fungi were incubated at 25° C for two to three weeks. A square block of side 2 mm. was excised and inoculated into the liquid medium. A 3-day old culture on Sabouraud's liquid medium was used for yeasts. The inoculum was 0.05 ml. per tube. All cultures were incubated at 25° C for 14 days.

Another experiment has as its system Trichophyton rubrum. The experiment is described as above. To be noted: Trichophyton rubrum, 336 h; Tr.r.; tested at 100, 10, 1 μg/ml; read-out: Concentrations in μg/ml for 100% Inhibition of Growth. How it is done: as §1, §2
The test system of another experiment is Microsporum canis. The experiment is described as above. To be noted: Microsporum canis, 336 h; M.c.; tested at 100, 10, 1 μg/ml; read-out: Concentrations in μg/ml for 100% Inhibition of Growth. As for the experimental part:
as §1, §2

Experiment [1] has as its system Ctenomyces mentagrophytes. The experiment is described as above. The conditions noted are these: Trichophyton mentagrophytes, 336 h; Ct.m.; tested at 100, 10, 1 μg/ml; read-out: Concentrations in μg/ml for 100% Inhibition of Growth. As for the experimental part: as §1, §2
For experiment [2], the system named is Staphylococcus hemolyticus. As to the kind of experiment: Antibacterial growth inhibition in phenol red dextrose broth. The conditions noted are these: 168 h, Staph., tested at 100, 10, 1 μg/ml, read-out: Concentration in μ g for 100% Growth Inhibition. How it is done:
(§3) The tests on bacteria were performed on cultures on phenol red dextrose broth medium (Difco). By using decimal dilution techniques described for the tests for antifungal activity, test media containing 100 μg, 10 μg and 1 μg of imidazolium salt per milliliter of medium were obtained. The inoculum consisted of a platinum loop (5 mm diameter) from a 24 hour broth culture. Forty-eight hours after incubation, subcultures were made from each culture for the determination of antibacterial activity of the imidazolium salts. After seven days of incubation, observations were made to determine the presence or absence of bacterial growth.

Another experiment concerns Erysipelothrix insidiosa. Described as above. The conditions noted are these: Erysipelothrix rhusiopathiae, 168 h; E. ins.; tested at 100, 10, 1 μg/ml; read-out: Concentration in μ g for 100% Growth Inhibition. As for the experimental part:
as §3

Another experiment has as its system Escherichia coli. The experiment is described as above. The conditions noted are these: 168 h, E. coli, tested at 100, 10, 1 μg/ml, read-out: Concentration in μ g for 100% Growth Inhibition. As for the experimental part: as §3
The test system of the next experiment is Pseudomonas aeruginosa. Described as above. The conditions noted are these: 168 h, Ps. aer., tested at 100, 10, 1 μg/ml, read-out: Concentration in μ g for 100% Growth Inhibition. As for the experimental part:
as §3

In experiment [3] the test system is Salmonella pullorum gallinarum. The experiment is described as above. The conditions noted are these: Salmonella enterica, 168 h; Sp. G.; tested at 100, 10, 1 μg/ml; read-out: Concentration in μ g for 100% Growth Inhibition. How it is done: as §3
A further experiment relates to Streptococcus pyogenes. Described as above. To be noted: 168 h, Strep., tested at 100, 10, 1 μg/ml, read-out: Concentration in μ g for 100% Growth Inhibition. As for the experimental part: as §3

On to `Cc1ccc(OCC[n+]2ccn(CC(OCc3ccc(Cl)cc3Cl)c3ccc(Cl)cc3Cl)c2)cc1` (stereo not drawn) [(CH2)2OC6H4pCH3, 1-[2,4-dichloro-β-(2,4-dichlorobenzyloxy)phenethyl]-3-[2-(p-tolyoxy)ethyl]imidazolium bromide], for which the MIC with Cryptococcus neoformans came to 10 µg/mL; with Trichophyton rubrum it was 1 µg/mL; in the experiment on Microsporum canis, 10 µg/mL; in [1] it was 10 µg/mL; in [2], 1 µg/mL; in the experiment on Erysipelothrix insidiosa, 1 µg/mL. For the same compound, the MIC in the experiment with Escherichia coli was 10 µg/mL; with Pseudomonas aeruginosa, 100 µg/mL; in experiment [3], 10 µg/mL; in the experiment on Streptococcus pyogenes it was 1 µg/mL.
On to `Clc1ccc(COC(Cn2cc[n+](CCOc3ccccc3)c2)c2ccc(Cl)cc2Cl)c(Cl)c1.[Br-]` (stereo not drawn) [(CH2)2OC6H5, 1-[2,4-dichloro-β-(2,4-dichlorobenzyloxy)phenethyl]-3-(2-phenoxyethyl)imidazolium bromide], for which the MIC is 10 µg/mL with Cryptococcus neoformans; 1 µg/mL in the experiment on Trichophyton rubrum; 10 µg/mL in the experiment on Microsporum canis; 10 µg/mL in experiment [1]; 1 µg/mL in [2]; 1 µg/mL in the experiment on Erysipelothrix insidiosa. For the same compound, the MIC in the experiment with Escherichia coli turned out to be 10 µg/mL; with Pseudomonas aeruginosa it was 100 µg/mL; in experiment [3], 10 µg/mL; in the experiment with Streptococcus pyogenes, 1 µg/mL.
As for `Cc1ccc(C[n+]2ccn(CC(OCc3ccc(Cl)cc3Cl)c3ccc(Cl)cc3Cl)c2)cc1.[Br-]` (stereo not drawn) [CH2C6H4pCH3, 1-[2,4-Dichloro-β-(2,4-dichlorobenzyloxy)phenethyl]-3-(p-methylbenzyl)imidazolium bromide], the MIC worked out at 1 µg/mL in [2]; 10 µg/mL in the experiment with Erysipelothrix insidiosa; 10 µg/mL with Escherichia coli; 100 µg/mL in the experiment on Pseudomonas aeruginosa; 100 µg/mL in experiment [3]; 1 µg/mL in the experiment with Streptococcus pyogenes.
In the case of `Fc1ccc(C[n+]2ccn(CC(OCc3ccc(Cl)cc3Cl)c3ccc(Cl)cc3Cl)c2)cc1.[I-]` (stereo not drawn) [CH2C6H4pF, 1-[2,4-Dichloro-β-(2,4-dichlorobenzyloxy)phenethyl]-3-(p-fluorobenzyl)-imidazolium iodide], the MIC is 1 µg/mL in [2]; 10 µg/mL with Erysipelothrix insidiosa; 100 µg/mL in the experiment on Escherichia coli; 100 µg/mL with Pseudomonas aeruginosa; 10 µg/mL in [3]; 1 µg/mL with Streptococcus pyogenes.
As for `Cc1ccc(C[n+]2ccn(CC(OCc3ccc(Cl)cc3Cl)c3ccc(Cl)cc3Cl)c2)cc1C.[Cl-]` (stereo not drawn) [CH2C6H33,4(CH3)2, 1-[2,4-Dichloro-β-(2,4-dichlorobenzyloxy)phenethyl]-3-(3,4-dimethylbenzyl)imidazolium chloride], the MIC in the experiment with Cryptococcus neoformans was 10 µg/mL; with Trichophyton rubrum, 1 µg/mL; with Microsporum canis, 10 µg/mL; in experiment [1] it was 1 µg/mL; in [2], 1 µg/mL; in the experiment on Erysipelothrix insidiosa, 1 µg/mL. The MIC with Escherichia coli came out at 10 µg/mL; in the experiment with Pseudomonas aeruginosa it was 100 µg/mL; in experiment [3], 10 µg/mL; with Streptococcus pyogenes, 1 µg/mL.
As to `OC(Cn1cc[n+](CC(OCc2ccc(Cl)cc2Cl)c2ccc(Cl)cc2Cl)c1)c1ccc(Cl)cc1.[Br-]` (stereo not drawn) [CH2CHOHC6H4pCl, 1-(p-chloro-β-hydroxyphenethyl)-3-[2,4-dichloro-β-(2,4-dichlorobenzyloxy)phenethyl]imidazolium bromide], the MIC was found to be 1 µg/mL in experiment [2]; 1 µg/mL with Erysipelothrix insidiosa; 10 µg/mL in the experiment on Escherichia coli; 100 µg/mL in the experiment with Pseudomonas aeruginosa; 10 µg/mL in experiment [3]; 1 µg/mL in the experiment with Streptococcus pyogenes.
Turning to `OC(C[n+]1ccn(CC(OCc2ccc(Cl)cc2Cl)c2ccc(Cl)cc2Cl)c1)c1ccc(Cl)cc1Cl.[Cl-]` (stereo not drawn) [CH2CHOHC6H32,4(Cl)2, 1-[2,4-dichloro-β-(2,4-dichlorobenzyloxy)phenethyl]-3-(2,4dichloro-β-hydroxyphenethyl)imidazolium chloride], the MIC came out at 10 µg/mL in the experiment on Cryptococcus neoformans; 1 µg/mL in the experiment with Trichophyton rubrum; 1 µg/mL with Microsporum canis; 1 µg/mL in experiment [1]; 1 µg/mL in experiment [2]; 1 µg/mL with Erysipelothrix insidiosa. The MIC in the experiment with Escherichia coli is 10 µg/mL; with Pseudomonas aeruginosa, 100 µg/mL; in experiment [3] it was 10 µg/mL; in the experiment on Streptococcus pyogenes, 1 µg/mL.
As for `COc1ccccc1NC(=O)C[n+]1ccn(CC(OCc2ccc(Cl)cc2Cl)c2ccc(Cl)cc2Cl)c1` (stereo not drawn) [CH2CONHC6H4oOCH3, 1-[2,4-dichloro-β-(2,4-dichlorobenzyloxy)phenethyl]-3-[N-(o-methoxyphenyl)carbamoylmethyl]imidazolium chloride hydrate], the MIC is 1 µg/mL in [2]; 1 µg/mL in the experiment with Erysipelothrix insidiosa; 10 µg/mL in the experiment on Escherichia coli; 100 µg/mL in the experiment with Pseudomonas aeruginosa; 10 µg/mL in experiment [3]; 1 µg/mL in the experiment on Streptococcus pyogenes.
With `O=C(C[n+]1ccn(CC(OCc2ccc(Cl)cc2Cl)c2ccc(Cl)cc2Cl)c1)Nc1ccc(Cl)cc1` (stereo not drawn) [CH2CONHC6H4p(Cl), 1-[N-(p-chlorophenyl)carbamoylmethyl]-3-[2,4-dichloro-β-(2,4-dichlorobenzyloxy)phenethyl]imidazolium chloride hydrate], the MIC in [2] is 10 µg/mL; in the experiment with Erysipelothrix insidiosa, 1 µg/mL; in the experiment on Escherichia coli, 10 µg/mL; in the experiment on Pseudomonas aeruginosa, 100 µg/mL; in experiment [3], 100 µg/mL; in the experiment with Streptococcus pyogenes, 1 µg/mL.
On to `O=C(C[n+]1ccn(CC(OCc2ccc(Cl)cc2Cl)c2ccc(Cl)cc2Cl)c1)Nc1ccc(F)cc1` (stereo not drawn) [CH2CONHC6H4pF, 1-[2,4-dichloro-β-(2,4-dichlorobenzyloxy)phenethyl]-3-[N-(p-fluorophenyl)carbamoylmethyl]imidazolium chloride], for which the MIC came to 1 µg/mL in [2]; 1 µg/mL with Erysipelothrix insidiosa; 10 µg/mL in the experiment on Escherichia coli; 100 µg/mL with Pseudomonas aeruginosa; 10 µg/mL in experiment [3]; 1 µg/mL in the experiment on Streptococcus pyogenes.
Regarding `COc1ccc(NC(=O)C[n+]2ccn(CC(OCc3ccc(Cl)cc3Cl)c3ccc(Cl)cc3Cl)c2)cc1` (stereo not shown) [CH2CONHC6H4pOCH3], the MIC in experiment [2] was found to be 1 µg/mL; in the experiment with Erysipelothrix insidiosa, 1 µg/mL; in the experiment with Escherichia coli, 10 µg/mL; in the experiment with Pseudomonas aeruginosa, 100 µg/mL; in experiment [3], 10 µg/mL; in the experiment with Streptococcus pyogenes it was 1 µg/mL.
`Cc1ccc(CNC(=O)C[n+]2ccn(CC(OCc3ccc(Cl)cc3Cl)c3ccc(Cl)cc3Cl)c2)cc1` (stereo not drawn) [CH2CONHCH2C6H4pCH3, 1-[2,4-Dichloro-β-(2,4-dichlorobenzyloxy)phenethyl]-3-[N-(p-methylbenzyl)carbamoylmethyl]imidazolium chloride]: the MIC in [2] was 10 µg/mL; in the experiment with Erysipelothrix insidiosa it was 10 µg/mL; in the experiment on Escherichia coli it was 10 µg/mL; in the experiment on Pseudomonas aeruginosa, 100 µg/mL; in experiment [3], 10 µg/mL; in the experiment on Streptococcus pyogenes it was 10 µg/mL.
For `CC(C(=O)Nc1cccc(Cl)c1)[n+]1ccn(CC(OCc2ccc(Cl)cc2Cl)c2ccc(Cl)cc2Cl)c1` (stereo not drawn) [CH(CH3)CONHC6H4mCl, 1-{1-[N-(m-Chlorophenyl)carbamoyl]ethyl 56-3-[2,4-dichloro-β-(2,4-dichlorobenzyloxy)phenethyl]imidazolium bromide], the MIC in experiment [2] turned out to be 1 µg/mL; in the experiment with Erysipelothrix insidiosa, 1 µg/mL; with Escherichia coli, 100 µg/mL; in the experiment on Pseudomonas aeruginosa, 100 µg/mL; in experiment [3] it was 100 µg/mL; with Streptococcus pyogenes, 1 µg/mL.
As for `Fc1ccc(C(c2ccc(Cl)cc2)[n+]2ccn(CC(OCc3ccc(Cl)cc3Cl)c3ccc(Cl)cc3Cl)c2)cc1` (stereo not shown) [drawing 69], the MIC in experiment [2] is 1 µg/mL; in the experiment with Erysipelothrix insidiosa it was 1 µg/mL; in the experiment on Escherichia coli, 100 µg/mL; in the experiment on Pseudomonas aeruginosa, 100 µg/mL; in experiment [3], 100 µg/mL; in the experiment with Streptococcus pyogenes, 1 µg/mL.
